Source: paper PMC8345109, “Optimization of New Catalytic Topoisomerase II Inhibitors as an Anti-Cancer Therapy” (Cancers, 2021)
In brackets after ≈: the same amount, converted by molar mass. Where two headings read alike, the source gives them in different places.

Legend:
salmon sperm DNA = assay: Ethidium bromide displacement assay; type: binding; conditions: 100 µg/mL salmon sperm DNA, 2 µg/mL ethidium bromide
Procedure: (§1) (A) Ethidium bromide displacement assays were performed by mixing 100 µg/mL salmon sperm DNA with −/+2 µg/mL ethidium bromide and the indicated compounds. Reactions were subjected to fluorescence emission of 590 nm and excitation of 535 nm. Obtained signals were detected by using the Multimode Microplate Reader (Infinite F500). […] Reactions were subjected to 5–20% LED/excitation power and medium MST power using premium capillaries. Obtained signals were detected by using the Monolith NT.115 system. The change in thermophoresis is expressed as the change in the normalized fluorescence (ΔFnorm). MST assays were repeated with two control compounds, enzalutamide (Enza) and merbarone.

TOP2A [1] = biological target: T1, TOP2A (Homo sapiens, UniProt P11388); assay: Supercoiled plasmid DNA relaxation assay, TOP2A; type: biochemical; conditions: 0.01-200 uM, three biological repeats
Procedure: (§2) Figure 2 T637 and T638 are TOP2A inhibitors. (A) K-DNA decatenation assays and (B) supercoiled plasmid DNA relaxation assays are used to measure TOP2A enzyme activity in the presence of 0.01–200 uM T637 or T638. Three biological repeats were performed with each concentration of the compounds, and the densitometry of the D-DNA bands from (A) and the SC bands from (B) was used to establish an inhibition curve for IC50 calculation.

Solubility by LC/MS/MS = type: physicochemical; conditions: for solubility at 1 h: kinetic from dmso stock
Procedure: Stock solutions of the tested compounds at 50 mM in dimethyl sulfoxide (DMSO) were diluted 50-fold in methanol (MeOH), Roswell Park Memorial Institute-1640 (RPMI1640), plus 5% charcoal-stripped serum (CSS) from Sigma-Aldrich (media) and phosphate-buffered saline (PBS), and vortexed at room temperature for 1 h at 800 rpm. The resulting solutions were centrifuged at 20,000× g for 5 min, and the saturated supernatants were diluted 40-fold in acetonitrile. The resultant solutions were subjected to LC/MS/MS to determine the solubility.

in vitro = conditions: mouse, liver microsomes, pH 7.4
Procedure: The reaction was initiated by adding NADPH, followed by incubation at 37 °C. […] The samples were then vortexed and centrifuged at 16,000 rpm for 10 min at 4 °C. The supernatants were collected and analyzed by LC/MS/MS to determine the remaining percentage and the half-life (t1/2) by integrating compound peaks and fitting the resulting AUC values and time points to a one-phase decay equation.

human TOP2A(431-1193) [2] = biological target: T2, human TOP2A(431-1193) (Homo sapiens, UniProt P11388); assay: EMSA, TOP2A(431-1193) with 5ZRF DNA oligo; type: binding; conditions: 2 uM protein, 300 nM oligo
T2 construct: 6xHis (N); made in house; host or cells: E. coli BL21 (DE3)

full-length TOP2A [3] = biological target: T3, full-length TOP2A (Homo sapiens, UniProt P11388); assay: EMSA, full-length TOP2A with 5ZRF DNA oligo; type: binding; design: EMSA was performed by purified full-length TOP2A or TOP2B proteins; conditions: 200 µM compound, 300 nM protein, 100 nM oligo
Procedure: (§3) (A) EMSA was performed by purified full-length TOP2A or TOP2B proteins at a contraction of 300 nM with IRDay700 labeled 5ZRF DNA oligo at a concentration of 100 nM in the presence of −/+200 µM of ICRF193, T60, T637, and T638. […] Reactions were subjected to fluorescence […], which were detected by using the Multimode Microplate Reader (Infinite F500). (D) DNA cleavage assays were performed using full-length human TOP2A and TOP2B incubated with the supercoiled pHOT plasmid in the presence of 200 µM of etoposide plus 1, 100, or 200 µM of ICRF193, T60, T637, and T638. Reactions were separated on a DNA gel with ethidium bromide. All experiments were repeated three times, and one representative image was shown. Note: N, nicked DNA; L, linear DNA; and SC, supercoiled DNA.

TOP2B [4] = biological target: T4, TOP2B (Homo sapiens, UniProt Q02880); assay: Supercoiled plasmid DNA relaxation assay, TOP2B; type: biochemical; conditions: 0.01-200 uM, three biological repeats
Procedure: as §2, with “Figure 3” for “Figure 2”, “are TOP2B” for “are TOP2A”, “measure TOP2B” for “measure TOP2A enzyme”

TOP2B [5] = biological target: T4, TOP2B; assay: K-DNA decatenation assay, TOP2B; type: biochemical; conditions: 0.01-200 uM, three biological repeats
Procedure: as §2, with “Figure 3” for “Figure 2”, “are TOP2B” for “are TOP2A”, “measure TOP2B” for “measure TOP2A enzyme”

TOP2A [6] = biological target: T1, TOP2A; assay: K-DNA decatenation assay, TOP2A; type: biochemical; conditions: 0.01-200 uM, three biological repeats
Procedure: as §2

full-length TOP2B [7] = biological target: T5, full-length TOP2B (Homo sapiens, UniProt Q02880); assay: EMSA, full-length TOP2B with 5ZRF DNA oligo; type: binding; design: EMSA was performed by purified full-length TOP2A or TOP2B proteins; conditions: 200 µM compound, 300 nM protein, 100 nM oligo
Procedure: as §3

[8] = Crystal formation (precipitation) in cell cultures; type: physicochemical
Procedure: Both T637 and T638 have improved solubility in aqueous solution and culture media compared to T60 (Figure 1). […] When cells are growing in the culture media and treated with T60 at concentrations ≥50 uM for two days, T60 will form crystals, likely due to the altered pH values by the cells that induce T60 precipitation. […] These improvements in solubility allow higher doses of compounds to be used to treat cancer cells to reach maximum tumor suppression.

human TOP2A(431-1193) [9] = biological target: T2, human TOP2A(431-1193); assay: Fluorescence polarization (FP) assay of TOP2A-DNA interaction; type: binding; conditions: 500 nM protein, 0.01-200 µM compound
Procedure: Fluorescent polarization assay was performed in Corning® Low Volume 384-well Black Flat Bottom microplate. […] Triplicate reactions were transferred onto the microplate and incubated at room temperature for 20 min. Fluorescence polarization (FP) measurements were taken by Tecan Infinite F500 with the excitation wavelength of 485 nm and emission wavelength of 535 nm.
as §3

K562 cells [10] = assay: Cytotoxicity by LDH release; conditions: for Cytotoxicity (LDH release), in words: K562, 0-20 uM, 48 h
Procedure: (§4) (A) K562 cells were treated with 0, 0.5, 1, 5, 10, 15, and 20 uM of T60 or 0, 0.5, 1, 5, 10, 15, 20, 50, and 100 uM of T637 and T638 for 24, 48, or 72 h. […] (B) NCI-H446 small cell lung cancer line and Hela cervical cancer line were treated with 0, 0.5, 1, 5, 10, 15, and 20 uM of T60 or 0, 0.5, 1, 5, 10, 15, 20, 50, and 100 uM of T637 and T638 for five days. Cell growth rates were measured by using Incucyte^TM. (C) K562 cells were treated with 0, 5, 10, 15, and 20 uM of T60, T637, or T638 for 48 h. Cytotoxicity was evaluated by measuring the LDH levels from the culture media. (D) K562 cells were treated with the vehicle or 10–20 µM of etoposide, T60, T637, or T638 for 4 h. Immunoblotting measured p-H2AXγ levels in cells with vinculin as a loading control.

K562 leukemia cells = assay: K562 cell proliferation (MTS assay); conditions: for inhibition at 20 µM: Homo sapiens, read-out: Maximum cell proliferation inhibition; for Maximum cell proliferation inhibition: K562, up to 100 uM
Procedure: as §4

human TOP2A(431-1193) [11] = biological target: T2, human TOP2A(431-1193); assay: Microscale thermophoresis (MST) binding assay; conditions: 5 nM NT647-labelled TOP2A(431-1193)
Procedure: It was transformed into BL21 (DE3) E. coli cells and induced by 0.5 mM IPTG for 16 h at 16 °C. Cells were lysed by sonication and protein purification was by chromatography with the Ni-NTA beads (Invitrogen), followed by a size exclusion chromatography (Superdex 200). […] A serial dilution of the inhibitors was prepared with 100% DMSO and subsequently mixed with the labeled fluorescent protein in the assay buffer (20 mM Tris pH 8.0, 100 mM NaCl, 0.1% NP40, 0.2 mM TCEP, and 0.1 mM PMSF) at the final concentrations of 0.015–500 uM. The final concentration of the protein was 5 nM. The labeled protein and small molecules mix were allowed to incubate in the dark at room temperature for 5 min before filling the capillaries. MST assays were performed with 5–20% LED/excitation power and medium MST power using premium capillaries for Monolith NT.115. The data for the estimation of Kd were analyzed using MO Affinity Analysis software from Nanotemper.
as §1

full-length TOP2B [12] = biological target: T5, full-length TOP2B; assay: DNA cleavage assay, TOP2B; type: biochemical; design: DNA cleavage assays were performed using full-length human TOP2A and TOP2B; conditions: 200 µM etoposide plus 1, 100 or 200 µM compound, pHOT plasmid
Procedure: as §3

full-length TOP2A [13] = biological target: T3, full-length TOP2A; assay: DNA cleavage assay, TOP2A; type: biochemical; design: DNA cleavage assays were performed using full-length human TOP2A and TOP2B; conditions: 200 µM etoposide plus 1, 100 or 200 µM compound, pHOT plasmid
Procedure: as §3

K562 cells [14] = assay: Immunoblotting of p-H2AXγ (DNA damage); conditions: K562, 10-20 µM, 4 h
Procedure: as §4

TOP2A(431-1193) = TOP2A(431-1193) (Homo sapiens, UniProt P11388 431-1193); assay: fluorescence polarization; merbarone 0.01-200 uM; 3 mM Mg2+; FP: 20 mM HEPES-NaOH pH 7.4, 2 mM DTT, 3 mM MgCl2, 0.05% NP-40, protease inhibitors, room temperature 20 min; EMSA buffer not in material; conditions: protein: recombinant; tags: N-terminal 6xHis (pET28a); label: 3' 6-FAM (Results text says NT474 dye); blunt; self-complementary 20-mer, 2 copies
[15] = RPMI1640 plus 5% charcoal-stripped serum, plasma or biological fluid, cell culture media with serum, read-out: Solubility Media/FBS
[16] = methanol, organic solvent or mixture, methanol, read-out: Solubility Methanol
[17] = phosphate-buffered saline, aqueous buffer, PBS, read-out: Solubility PBS

T1 sequence (P11388 whole entry): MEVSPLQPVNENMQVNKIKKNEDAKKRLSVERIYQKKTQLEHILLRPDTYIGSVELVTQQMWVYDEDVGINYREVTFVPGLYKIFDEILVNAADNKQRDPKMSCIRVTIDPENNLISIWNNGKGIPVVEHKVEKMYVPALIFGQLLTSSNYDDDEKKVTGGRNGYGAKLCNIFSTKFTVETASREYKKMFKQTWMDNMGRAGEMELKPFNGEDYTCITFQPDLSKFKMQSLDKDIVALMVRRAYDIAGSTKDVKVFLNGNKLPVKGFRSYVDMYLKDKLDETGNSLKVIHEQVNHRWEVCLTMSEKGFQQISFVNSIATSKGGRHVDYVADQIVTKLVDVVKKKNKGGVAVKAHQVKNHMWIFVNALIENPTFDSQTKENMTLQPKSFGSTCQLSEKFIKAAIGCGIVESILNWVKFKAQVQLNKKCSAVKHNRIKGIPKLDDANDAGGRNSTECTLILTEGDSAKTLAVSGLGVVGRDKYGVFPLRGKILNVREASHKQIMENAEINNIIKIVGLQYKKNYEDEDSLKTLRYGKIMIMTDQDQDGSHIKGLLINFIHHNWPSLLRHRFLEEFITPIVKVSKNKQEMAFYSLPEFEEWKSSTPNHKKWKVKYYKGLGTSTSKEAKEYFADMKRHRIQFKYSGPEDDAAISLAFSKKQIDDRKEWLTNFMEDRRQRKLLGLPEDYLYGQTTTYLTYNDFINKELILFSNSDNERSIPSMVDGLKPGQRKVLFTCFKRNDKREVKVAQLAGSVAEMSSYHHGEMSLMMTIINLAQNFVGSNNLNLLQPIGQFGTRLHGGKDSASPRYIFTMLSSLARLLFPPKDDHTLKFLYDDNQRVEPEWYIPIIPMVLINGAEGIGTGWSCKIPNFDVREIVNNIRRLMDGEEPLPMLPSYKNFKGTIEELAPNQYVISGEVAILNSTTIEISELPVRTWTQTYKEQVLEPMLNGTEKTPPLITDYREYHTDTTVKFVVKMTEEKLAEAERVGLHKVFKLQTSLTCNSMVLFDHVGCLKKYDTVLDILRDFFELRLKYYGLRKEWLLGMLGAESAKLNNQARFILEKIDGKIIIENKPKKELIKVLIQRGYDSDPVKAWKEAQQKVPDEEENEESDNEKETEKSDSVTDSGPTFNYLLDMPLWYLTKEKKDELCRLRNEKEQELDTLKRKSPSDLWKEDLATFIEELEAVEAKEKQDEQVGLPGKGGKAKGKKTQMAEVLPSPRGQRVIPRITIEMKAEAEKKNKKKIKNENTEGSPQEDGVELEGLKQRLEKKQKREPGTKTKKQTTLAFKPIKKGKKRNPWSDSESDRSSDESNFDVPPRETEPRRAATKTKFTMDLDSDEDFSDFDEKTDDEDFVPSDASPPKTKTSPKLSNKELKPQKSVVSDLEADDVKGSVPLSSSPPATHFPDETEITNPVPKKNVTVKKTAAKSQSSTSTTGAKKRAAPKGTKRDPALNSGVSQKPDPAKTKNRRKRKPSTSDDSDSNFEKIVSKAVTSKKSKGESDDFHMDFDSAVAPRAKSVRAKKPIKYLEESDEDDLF
T3 sequence (P11388 whole entry): as above
T4 sequence (Q02880 whole entry): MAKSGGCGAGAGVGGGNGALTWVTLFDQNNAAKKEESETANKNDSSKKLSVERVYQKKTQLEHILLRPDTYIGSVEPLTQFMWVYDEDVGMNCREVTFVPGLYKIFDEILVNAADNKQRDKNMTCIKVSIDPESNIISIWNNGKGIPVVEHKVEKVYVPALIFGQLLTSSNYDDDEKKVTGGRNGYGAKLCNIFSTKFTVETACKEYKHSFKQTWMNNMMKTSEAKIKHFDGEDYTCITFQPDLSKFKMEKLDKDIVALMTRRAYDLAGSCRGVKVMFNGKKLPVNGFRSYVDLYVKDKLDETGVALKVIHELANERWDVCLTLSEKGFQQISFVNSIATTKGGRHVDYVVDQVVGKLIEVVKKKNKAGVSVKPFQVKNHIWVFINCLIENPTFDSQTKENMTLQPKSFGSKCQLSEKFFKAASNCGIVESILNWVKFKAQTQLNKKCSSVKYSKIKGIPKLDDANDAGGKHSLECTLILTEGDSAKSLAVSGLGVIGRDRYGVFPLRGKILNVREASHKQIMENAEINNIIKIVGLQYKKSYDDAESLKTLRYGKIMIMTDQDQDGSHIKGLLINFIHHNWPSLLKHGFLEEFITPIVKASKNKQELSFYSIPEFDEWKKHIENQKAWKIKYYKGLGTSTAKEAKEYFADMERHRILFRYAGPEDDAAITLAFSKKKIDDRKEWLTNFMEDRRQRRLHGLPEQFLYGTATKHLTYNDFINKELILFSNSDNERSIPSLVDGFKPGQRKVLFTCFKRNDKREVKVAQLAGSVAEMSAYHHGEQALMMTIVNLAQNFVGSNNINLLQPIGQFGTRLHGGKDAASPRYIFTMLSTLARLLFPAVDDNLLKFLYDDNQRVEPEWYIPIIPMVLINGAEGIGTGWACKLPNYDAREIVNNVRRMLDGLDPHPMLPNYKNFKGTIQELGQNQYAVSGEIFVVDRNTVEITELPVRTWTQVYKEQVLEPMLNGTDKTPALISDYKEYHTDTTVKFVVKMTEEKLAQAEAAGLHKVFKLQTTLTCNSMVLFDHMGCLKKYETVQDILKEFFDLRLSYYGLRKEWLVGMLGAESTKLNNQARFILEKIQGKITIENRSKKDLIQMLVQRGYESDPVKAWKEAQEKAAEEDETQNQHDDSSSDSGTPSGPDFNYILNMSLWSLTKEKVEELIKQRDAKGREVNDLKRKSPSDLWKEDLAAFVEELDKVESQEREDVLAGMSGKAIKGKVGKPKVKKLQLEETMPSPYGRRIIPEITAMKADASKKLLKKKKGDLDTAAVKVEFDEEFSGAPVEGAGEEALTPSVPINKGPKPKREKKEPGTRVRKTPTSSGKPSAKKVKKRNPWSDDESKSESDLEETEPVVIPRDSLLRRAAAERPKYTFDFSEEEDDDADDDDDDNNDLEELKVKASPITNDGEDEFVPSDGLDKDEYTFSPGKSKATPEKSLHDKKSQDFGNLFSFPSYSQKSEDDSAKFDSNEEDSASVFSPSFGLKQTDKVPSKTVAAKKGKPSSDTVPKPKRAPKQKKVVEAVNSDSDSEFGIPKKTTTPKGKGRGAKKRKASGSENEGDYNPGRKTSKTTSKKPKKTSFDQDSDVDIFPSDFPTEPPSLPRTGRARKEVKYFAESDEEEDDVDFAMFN
T5 sequence (Q02880 whole entry): as above
T2 sequence (P11388 431-1193): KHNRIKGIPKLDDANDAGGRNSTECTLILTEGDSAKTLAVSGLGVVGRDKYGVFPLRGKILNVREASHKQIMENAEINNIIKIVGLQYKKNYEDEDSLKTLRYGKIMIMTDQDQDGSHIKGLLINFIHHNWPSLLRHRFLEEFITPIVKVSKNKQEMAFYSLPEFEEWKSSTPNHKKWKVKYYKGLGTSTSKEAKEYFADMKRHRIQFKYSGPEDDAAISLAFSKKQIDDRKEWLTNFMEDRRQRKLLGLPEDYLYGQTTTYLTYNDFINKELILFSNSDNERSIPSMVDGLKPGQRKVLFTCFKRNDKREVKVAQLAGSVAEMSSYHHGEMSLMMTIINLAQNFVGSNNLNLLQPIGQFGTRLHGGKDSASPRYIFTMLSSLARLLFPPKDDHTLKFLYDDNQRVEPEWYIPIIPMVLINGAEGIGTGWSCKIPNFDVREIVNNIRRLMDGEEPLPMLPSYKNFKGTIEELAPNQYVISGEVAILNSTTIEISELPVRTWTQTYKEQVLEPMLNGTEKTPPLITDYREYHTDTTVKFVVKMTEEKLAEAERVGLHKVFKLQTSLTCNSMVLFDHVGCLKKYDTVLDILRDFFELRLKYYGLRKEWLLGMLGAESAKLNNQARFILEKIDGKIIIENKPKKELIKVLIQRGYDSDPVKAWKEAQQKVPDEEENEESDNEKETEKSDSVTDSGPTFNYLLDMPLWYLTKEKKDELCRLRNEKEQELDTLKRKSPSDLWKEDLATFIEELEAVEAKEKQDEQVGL
Sequence of TOP2A(431-1193) (P11388 431-1193): as above

Molecule: COc1cc(NS(C)(=O)=O)ccc1Nc1c2ccccc2nc2ccccc12 [m-AMSA, amsacrine, reference compound]
- Fluorescence induced by the ethidium bromide/DNA complex reduced by increasing doses (DNA intercalation) (salmon sperm DNA): reduced

Molecule: O=C(Nc1ccc(Nc2ccccc2)cc1)c1ccc[nH]c1=S [T60]
- IC50 (TOP2A [1]): 4.7 µM
- solubility at 1 h (Solubility by LC/MS/MS; [15]): 206 µM
- Solubility Media/FBS (Solubility by LC/MS/MS; cell culture media with serum): ~ 200 uM
- solubility at 1 h (Solubility by LC/MS/MS; [16]): > 1000 µM
- solubility at 1 h (Solubility by LC/MS/MS; [17]): 5.8 µM (≈ 1.86 µg/mL)
- Fluorescence induced by the ethidium bromide/DNA complex reduced by increasing doses (DNA intercalation) (salmon sperm DNA): not
- half-life at 1 uM (in vitro): 51 min
- microsomal CLint at 1 uM (in vitro): 46 µL/min/mg
- Inhibition of TOP2A(431-1193)-DNA interaction (EMSA) (human TOP2A(431-1193) [2]): inhibited TOP2A–DNA interaction dose-dependently
- Block of TOP2A-DNA oligo complex formation (EMSA) (full-length TOP2A [3]): block
- IC50 (TOP2B [4]): ~8.9 µM
- IC50 (TOP2B [5]): ~3.1 µM
- IC50 (TOP2A [6]): ~0.3 µM
- Block of TOP2B-DNA oligo complex formation (EMSA) (full-length TOP2B [7]): block
- Concentration at which the compound forms crystals in culture media with growing cells ([8]; cells treated for two days): ≥ 50 µM
- Effect on TOP2A-DNA interaction (FP) (human TOP2A(431-1193) [9]): reduced the TOP2A–DNA interaction in a dose-dependent manner
- Cytotoxicity (LDH release), in words (K562 cells [10]): not observed
- inhibition at 20 µM (K562 leukemia cells; K562, 24 h): ~38%
- inhibition at 20 µM (K562 leukemia cells; K562, 48 h): 71%
- inhibition at 20 µM (K562 leukemia cells; K562, 72 h): 86%

Molecule: COc1cc([C@@H]2c3cc4c(cc3[C@@H](O[C@@H]3O[C@@H]5CO[C@@H](C)O[C@H]5[C@H](O)[C@H]3O)[C@H]3COC(=O)[C@H]23)OCO4)cc(OC)c1O [etoposide, reference compound]
- Cytotoxicity (LDH release) (K562 cells [10]; K562, 20 uM, two days): up to 70%

Molecule: O=C1NC(=S)NC(=O)C1C(=O)Nc1ccccc1 [merbarone, reference compound]
- Binding to TOP2A(431-1193) by MST (change of thermophoresis), in words (human TOP2A(431-1193) [11]): no interaction
- Inhibition of TOP2A(431-1193)-DNA interaction (EMSA) (human TOP2A(431-1193) [2]): did not affect the formation of the TOP2–DNA complex
- Effect on TOP2A-DNA interaction (FP) (human TOP2A(431-1193) [9]): did not affect TOP2A–DNA interaction

Molecule: CNC(=O)c1ccc(N2C(=S)N(c3ccc(C#N)c(C(F)(F)F)c3)C(=O)C2(C)C)cc1F [enzalutamide]
- Binding to TOP2A(431-1193) by MST (change of thermophoresis), in words (human TOP2A(431-1193) [11]): no alteration of thermophoresis

Molecule: CC(=O)Nc1cc(Nc2ccccc2)ccc1NC(=O)c1ccc[nH]c1=S [T637]
- IC50 (TOP2A [1]): 16.8 µM
- solubility at 1 h (Solubility by LC/MS/MS; [15]): 707 µM
- solubility at 1 h (Solubility by LC/MS/MS; [16]): > 1000 µM
- solubility at 1 h (Solubility by LC/MS/MS; [17]): 20 µM (≈ 7.57 µg/mL)
- Fluorescence induced by the ethidium bromide/DNA complex reduced by increasing doses (DNA intercalation) (salmon sperm DNA): not
- half-life at 1 uM (in vitro): 20 min
- microsomal CLint at 1 uM (in vitro): 116 µL/min/mg
- Prevention of etoposide-induced DNA cleavage, TOP2B (full-length TOP2B [12]): did prevent etoposide-induced DNA cleavage
- Inhibition of TOP2A(431-1193)-DNA interaction (EMSA) (human TOP2A(431-1193) [2]): inhibited TOP2A–DNA interaction dose-dependently
- Prevention of etoposide-induced DNA cleavage, TOP2A (full-length TOP2A [13]): did prevent etoposide-induced DNA cleavage
- Block of TOP2A-DNA oligo complex formation (EMSA) (full-length TOP2A [3]): block
- IC50 (TOP2B [4]): ~18.6 µM
- IC50 (TOP2B [5]): ~8.9 µM
- IC50 (TOP2A [6]): ~1.4 µM
- Intracellular DNA damage (phospho-H2AXγ protein levels) (K562 cells [14]): do not cause intracellular DNA damage
- Block of TOP2B-DNA oligo complex formation (EMSA) (full-length TOP2B [7]): block
- Crystal formation in cell cultures, in words ([8]; up to 100 uM): no crystal formation
- Effect on TOP2A-DNA interaction (FP) (human TOP2A(431-1193) [9]): reduced the TOP2A–DNA interaction in a dose-dependent manner
- Cytotoxicity (LDH release), in words (K562 cells [10]): not observed
- Maximum cell proliferation inhibition (K562 leukemia cells; 48 h): 100%
- Maximum cell proliferation inhibition (K562 leukemia cells; 72 h): 100%

Molecule: ICRF193 [reference compound]
- Prevention of etoposide-induced DNA cleavage, TOP2B (full-length TOP2B [12]): did not prevent etoposide-induced DNA cleavage
- Prevention of etoposide-induced DNA cleavage, TOP2A (full-length TOP2A [13]): did not prevent etoposide-induced DNA cleavage
- Block of TOP2A-DNA oligo complex formation (EMSA) (full-length TOP2A [3]): not

B1: 5ZRF DNA oligo (FAM) (dsDNA)
DNA 1: AGCCGAGCTGCAGCTCGGCT
DNA 2: AGCCGAGCTGCAGCTCGGCT
- binding result (TOP2A(431-1193)): binds
